Data taken from patent publication US20220218834A1, “APOHEMOGLOBIN-HAPTOGLOBIN COMPLEXES AND METHODS OF USING THEREOF” (OHIO STATE INNOVATION FOUNDATION, priority 2019, published 2022).

What was measured:
[1] = test system: cancerous cells (4T1, MDA-MB-231); type: cell-based; conditions: without laser irradiation (dark)
Description: (§1) Cell Culture. Cancerous (4T1 [murine] and MDA-MB-231 [human]) and noncancerous (NOR-10 [murine] and MCF-10A [human]) cell lines were purchased from American Type Culture Collection (ATCC, Manassas, Va.). All cells were cultured in DMEM, and supplemented with 10% (v:v) fetal bovine serum and 1% (v:v) antibiotic solution (100 IU/mL penicillin and […]). All cells were maintained at 37° C. in 5% CO2 and in a humidified atmosphere.
(§2) PDT. For PDT, 4T1, MDA-MB-231, NOR-10, and MCF-10A cells were cultured for 24 hours at a density of 5×10^3 on coverslips. Next, cells were exposed to Al-PC, apoHb-Al-PC-Hp, and apoHb-Hp in culture medium at different concentrations. Later, the cells were irradiated with a laser (λ=670 nm) at energy densities between 0.0 J/cm2 and 4 J/cm2 for 15 minutes in the dark.
(§3) Cell Viability. Cell viability was assessed using the MTT assay, which is converted by the mitochondria of viable cells to an insoluble purple precipitate. Briefly, after receiving their treatment, cells were washed with PBS twice and then incubated with 0.5 mg/mL of MTT in culture medium for 2 hours. Then, the MTT solution was washed away, and the purple precipitate was extracted from the cells with 150 μL of dimethyl sulfoxide (DMSO). The absorption was then measured at λ=595 nm using a spectrophotometer (Spectramax; Molecular Devices).

[2] = test system: normal cells (NOR-10, MCF 10A); test: Cell viability (MTT) without laser irradiation, normal cells; type: cell-based, murine and human; conditions: without laser irradiation (dark)
Description: as §1, §2, §3

[3] = unit not given; cited from earlier work
[4] = Stability of apoHb-Al-PC on dialysis against PBS; type: physicochemical
Description: Stability of ApoHb-Al-PC. […] The sample was then dialyzed against PBS using 6-8 kDa cellulose dialysis membranes to remove any residual EtOH. Dialysis was performed over three days with daily exchange of the PBS buffer. The UV-visible absorbance spectra of samples were measured before and after dialysis.

[5] = test system: Hp; test: HPLC-SEC of apoHb-Mn-IX binding to Hp; design: species or system human; conditions: excess apoHb, detection of Mn-IX
Description: Diagnostic/therapeutic solutions tested here consisted of either Mn-porphyrin IX chloride (Mn-IX) or aluminum phthalocyanine (Al-PC) chloride. The Mn-IX solution was made by dissolving 2.5 mg of Mn-IX in 0.5 mL of 0.1 M NaOH. For Al-PC, 1 mg of Al-PC was dissolved in 1 mL of pure EtOH, then 50 μL of the saturated solution was diluted into 1 mL of pure EtOH (the second dilution ensured that the Al-PC is monomeric in solution). […] From the stock diagnostic/therapeutic solutions, either 2 μl of the stock Mn-IX or 100 μl of the Al-PC solutions was added to the protein samples. The resultant mixtures had their absorbance spectras measured via UV-visible spectroscopy and were separated via size exclusion chromatography (SEC) using an Acclaim SEC-1000 (4.6×300 mm) column (Thermo Fisher Scientific, Waltham, Mass.) attached to a Dionex UltiMate 3000 system (Thermo Fisher Scientific, Waltham, Mass.). The mobile phase consisted of 50 mM potassium phosphate, pH 7.4.
Target sequence in this assay (P00738 19-160 limits assumed): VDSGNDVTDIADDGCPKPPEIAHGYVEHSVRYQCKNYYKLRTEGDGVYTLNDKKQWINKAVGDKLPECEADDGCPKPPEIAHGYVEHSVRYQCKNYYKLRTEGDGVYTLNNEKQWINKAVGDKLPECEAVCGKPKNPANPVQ
Target sequence in this assay (P00738 162-406 limits assumed): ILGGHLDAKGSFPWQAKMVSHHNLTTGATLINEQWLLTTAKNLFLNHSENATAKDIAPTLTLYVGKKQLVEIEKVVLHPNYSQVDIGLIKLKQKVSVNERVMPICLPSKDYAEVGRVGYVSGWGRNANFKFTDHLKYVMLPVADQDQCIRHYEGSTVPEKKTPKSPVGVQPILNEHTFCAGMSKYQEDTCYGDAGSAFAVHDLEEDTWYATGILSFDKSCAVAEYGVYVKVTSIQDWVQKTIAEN
Target sequence in this assay (P69905 2-142 partner limits assumed): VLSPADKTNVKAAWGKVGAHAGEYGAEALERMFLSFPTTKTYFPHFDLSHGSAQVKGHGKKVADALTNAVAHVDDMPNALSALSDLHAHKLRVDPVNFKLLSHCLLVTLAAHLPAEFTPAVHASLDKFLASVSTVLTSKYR
Target sequence in this assay (P68871 2-147 partner limits assumed): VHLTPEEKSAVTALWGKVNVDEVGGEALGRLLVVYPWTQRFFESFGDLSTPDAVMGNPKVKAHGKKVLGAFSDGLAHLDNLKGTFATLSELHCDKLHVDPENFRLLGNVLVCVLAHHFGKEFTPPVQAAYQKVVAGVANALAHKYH

[6] = O2 equilibrium binding curves of rHb and native Hb (Hemox analyzer); type: biochemical; conditions: 37° C.; for P50: O2 affinity; for N (cooperativity coefficient n): O2 equilibrium
Description: rHb Analysis. Various liganded forms of rHb were analyzed via UV-Vis spectroscopy and compared against native Hb. The oxy-rHb and oxyHb equilibrium binding curves were measured using a Hemox analyzer (TCS Scientific Corp., New Hope, Pa.) at 37° C. The spectra of rHb was measured after one day reaction with excess heme (stage 1), after reduction and diafiltration with the modified HEMOX buffer (stage 2), after placing the rHb mixture under a CO atmosphere (stage 3), after heating the CO-rHb mixture and removing precipitate (stage 4), and after re-oxygenating the rHb sample (stage 5). Spectral deconvolution software was developed in the Python programming language (Python Software Foundation Beaverton, Oreg.) using the non-linear least squares function curve_fit of the SciPy package to determine the fraction of various liganded forms of rHb that contribute to the final spectra of the rHb mixture (i.e. containing metHb, hemichrome, oxyHb, HbCO and heme).

[7] = O2-Hb/PolyHb equilibrium binding curves (Hemox Analyzer); type: biochemical
Excerpt: (§4) The Hb used in this exampler was purified from human RBCs via tangential flow filtration (TFF), as described previously. Hb was polymerized with glutaraldehyde under complete deoxygenation in the tense (T) quaternary state at a 25:1 molar ratio of glutaraldehyde to Hb. After polymerization, PolyHb was clarified, purified, and buffer exchanged into a modified Ringer's lactate solution using TFF. Modified polyester sulfone hollow fiber filters with a molecular weight cutoff (MWCO) of 100 kDa were used to remove unpolymerized Hb from solution. The PolyHb solution was concentrated to 12 g/dL. […] The size distribution of PolyHb, by particle volume, was measured using dynamic light scattering (DLS) (Brookhaven Instrument Inc. BS-200M, Holtsville, N.Y.). The rheology of PolyHb solutions was measured using a DV3T-CP cone and plate rheometer (Brookfield AMETEK, Middleboro, Mass.) with cone spindle CPA-40Z. The O2-Hb/PolyHb equilibrium binding curves were measured using a Hemox Analyzer (TCS Scientific Corp., New Hope, Pa.). The Hb/PolyHb kinetics of O2 offloading (koff,O2) and NO dioxygenation kinetics (kox,NO) were measured with an Applied Photophysics SF-17 microvolume stopped-flow spectrophotometer (Applied Photophysics Ltd., Surrey, United Kingdom) using protocols previously described by Rameez and Palmer. […]

[8] = Hb/PolyHb NO dioxygenation kinetics, stopped-flow; type: biochemical; conditions: 20° C., 0.1 M pH 7.4 PBS
Excerpt: as §4

[9] = Rheology of PolyHb solutions (cone and plate rheometer); type: physicochemical
Excerpt: as §4

[10] = test system: Hp; test: Kinetics of Hp binding to Hb and PolyHb, stopped-flow fluorescence; design: species or system human; conditions: 20° C., PBS 0.1 M pH 7.4
Description: The Hp used for this study was purified from human Cohn Fraction IV derived from pooled human plasma. The resulting Hp contained both Hp2-1 and Hp2-2 phenotypes. The total amount of protein in solution was estimated with a Bradford assay. The Hb binding capacity of Hp was assessed by monitoring Hb binding to Hp at 413 nm with HPLC-SEC and was used to quantify the concentration of Hp. The reaction of Hp with either unmodified human Hb or PolyHb synthesized in this study was monitored using an SX-20 stopped stopped-flow spectrophotometer using previously described methods (Applied Photophysics, Leatherhead, UK). Excess Hp (2:1, Hp:PolyhHb on a Hb tetramer binding basis) was allowed to react with PolyHb to form the resulting Hp-PolyHb complex. The resulting changes in size distribution after Hp binding was estimated with HPLC-SEC using previously described methods. All measurements were taken from the same sample used in the animal study.
Target sequence in this assay (P00738 162-406 limits assumed): as the sequence (P00738 162-406 limits assumed) above

[11] = Specificity of Al-PC binding to proteins (UV-visible absorbance at 680 nm); conditions: absorbance at 680 nm after Al-PC addition in PBS
Description: The stock Al-PC solution was diluted 100× into 100% EtOH.
The concentrations of Hp, HSA, Hb and rHb in solution were 1.0 mg/mL, 0.35 mg/ml (and 3.5 mg/ml), 0.35 mg/mL, and 0.33 mg/mL respectively.

[12] = test system: Hp; conditions: cited from earlier work
Target sequence in this assay (P00738 162-406 limits assumed): as above

Molecule: [Cl][Al]1[n]2c3c4ccccc4c2N=C2N=C(N=c4c5ccccc5c([n]41)=NC1=NC(=N3)c3ccccc31)c1ccccc12 [Al-PC, aluminum phthalocyanine chloride]
- lethal dose for 50% cell-death (LD50) [1]: 7 µM
- lethal dose for 50% cell-death (LD50) [2]: 10 µM

Molecule: Hb in human RBCs: Hb in human red blood cells, literature O2 affinity
- O2 affinity P50, literature [3]: 29.3

Molecule: apoHb-Al-PC: Al-PC bound to apoHb
- stability in aqueous solution [4]: not stable in aqueous solution

Molecule: apoHb-Mn-IX: Mn-porphyrin IX bound to apoHb
- affinity of Hp [5]: higher affinity for apoHb-Mn-IX than to pure apoHb

Molecule: hHb: human hemoglobin prepared from red blood cells via tangential flow filtration [reference compound]
- P50 [6]: 11.69 ± 0.88 mm Hg
- P50 ([6]; listed as Native hHb): 11.33±0.02 mm Hg
- P50 ([6]; listed as native Hb): 11.69±0.88 mm Hg
- N (cooperativity coefficient n) [6]: 2.73 ± 0.11^
- N (cooperativity coefficient n) ([6]; listed as Native hHb): 2.60±0.01
- N (cooperativity coefficient n) ([6]; listed as native Hb): 2.73±0.11
- cooperativity n [7]: 2.51±0.06
- oxygen affinity P50 [7]: 12.4±1.3 mm Hg
- rate of NO dioxygenation kox,NO [8]: 36.0±6.1
- viscosity [9]: 1.2±0.2 cP
- rate constant of Hp binding [10]: 150000 ± 1000 M⁻¹ s⁻¹
- Al-PC binding [11]: no appreciable binding of Al-PC
- rate constant of Hp binding, literature [12]: 129000 M⁻¹ s⁻¹
